Reference: patent US20250099448A1, “HETEROCYCLIC COMPOUNDS” (Hoffmann-La Roche Inc., priority 2022, published 2025)

target: T1, MAGL protein (Homo sapiens, UniProt Q99685); assay: 2-AG assay: MAGL inhibitory activity by hydrolysis of 2-arachidonoylglycerol to arachidonic acid, followed by mass spectrometry; format: biochemical; settings: 8 μM 2-arachidonoylglycerol, 15 min preincubation, 30 min reaction at RT, RapidFire MS readout
T1 sequence (Q99685 1-303): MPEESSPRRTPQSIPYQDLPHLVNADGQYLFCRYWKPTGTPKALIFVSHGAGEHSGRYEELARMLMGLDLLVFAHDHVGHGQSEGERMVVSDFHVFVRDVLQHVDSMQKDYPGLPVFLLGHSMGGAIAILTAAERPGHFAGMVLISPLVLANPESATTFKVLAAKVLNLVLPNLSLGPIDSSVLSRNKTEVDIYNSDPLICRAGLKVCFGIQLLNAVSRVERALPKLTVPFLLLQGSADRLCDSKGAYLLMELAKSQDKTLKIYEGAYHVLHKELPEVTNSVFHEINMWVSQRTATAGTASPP
Summary of the method: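 Activity was measured by RapidFire SPE–triple-quad MS as the ratio of arachidonic acid to d8-arachidonic acid after 2-AG hydrolysis (8 μM substrate, 30 min, RT, acetonitrile quench). Compounds, tested from 12.5 μM down to […], were first preincubated 15 min with MAGL in TRIS/EDTA/Tween-20 buffer containing 2.5% DMSO.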

Row | Structure (SMILES) | IC50 [nM]
1 | O=C(N1CC2(CC(Oc3ccc(F)cn3)C2)C1)N1CC2(CC(c3nc(C4CC4)n[nH]3)C2)C1 [compound 434] | 5.52
2 | O=C(N1CC2(CCC(S(=O)(=O)c3cccc(C(F)(F)F)c3)CC2)C1)N1CC2(CC(c3nc(C4CC4)n[nH]3)C2)C1 [compound 435] | 3.95
3 | O=C(N1CC2(CCC(Cc3nnc(C(F)(F)F)[nH]3)CC2)C1)N1CC2(CC(c3nc(C4CC4)n[nH]3)C2)C1 [compound 436] | 32.3
4 | O=C(N1CC(C23CC(Cc4ccc(C(F)(F)F)cc4F)(C2)C3)C1)N1CC2(CC(c3nc(C4(O)CC4)n[nH]3)C2)C1 [compound 438] | 3.46
5 | CC(C)(C)Cc1nnc(C23CC(C4CCN(C(=O)N5CC6(CC(c7nc(C8CC8)n[nH]7)C6)C5)CC4)(C2)C3)o1 [compound 439] | 4.22
6 | Cc1nn(CC(F)(F)F)cc1CN1CC2(C1)CN(C(=O)N1CC3(CC(c4nc(C5CC5)n[nH]4)C3)C1)C2 [compound 440] | 109
7 | O=C(N1CC2(CC(Cn3cnc(C(F)(F)F)n3)C2)C1)N1CC2(CC(c3nc(C4CC(F)(F)C4)n[nH]3)C2)C1 [compound 441] | 414
8 | O=C(N1CC(c2cnc(CNC3(C(F)(F)F)CC3)cn2)C1)N1CC2(CC(c3nc(C4CC4)n[nH]3)C2)C1 [compound 443] | 2.47
9 | O=C(N1CC2(CC(Cn3ncnc3C(F)(F)F)C2)C1)N1CC2(CC(c3nc(C4CC4)n[nH]3)C2)C1 [compound 444] | 3.25
10 | Cc1cc(C(F)(F)F)nn1CC1CC2(C1)CN(C(=O)N1CC3(CC(c4nc(C5CC5)n[nH]4)C3)C1)C2 [compound 445] | 0.24
11 | O=C(N1CC2(CC(c3nc(C4CC4)n[nH]3)C2)C1)N1CC2(CC(C(F)(F)c3ccc(C(F)(F)F)nn3)C2)C1 [compound 446] | 1.71
12 | O=C(N1CC(C23CC(c4nnc(C5(C(F)(F)F)CC5)s4)(C2)C3)C1)N1CC2(CC(c3nc(C4(O)CC4)n[nH]3)C2)C1 [compound 447] | 101
13 | O=C(N1CC2(CC(c3nc(C4(O)CC4)n[nH]3)C2)C1)N1CC2(CC(C(F)(F)c3ccc(C(F)(F)F)nn3)C2)C1 [compound 448] | 8.2
14 | O=C(N1CC2(CC(Cc3nsc(C(F)(F)F)n3)C2)C1)N1CC2(CC(c3nc(C4CC4)n[nH]3)C2)C1 [compound 450] | 0.24
15 | O=C(N1CC2(CC(c3nc(C4(O)CC4)n[nH]3)C2)C1)N1CC2(CN(Cc3ccc(S(=O)(=O)C(F)(F)F)cc3F)C2)C1 [compound 451] | 1.52
16 | O=C(N1CC2(CC(Cc3ccc(C(F)(F)F)nn3)C2)C1)N1CC2(CC(c3nc(C4CC(F)(F)C4)n[nH]3)C2)C1 [compound 452] | 413
17 | O=C(N1CC2(CC(Cn3ccnc3C(F)(F)F)C2)C1)N1CC2(CC(c3nc(C4CC4)n[nH]3)C2)C1 [compound 453] | 1.73
18 | CS(=O)(=O)c1cc(Cl)ccc1-c1ccc(C2CN(C(=O)N3CC4(CC(c5ncn[nH]5)C4)C3)C2)cc1 [compound 454] | 129
19 | O=C(N1CC2(CC(Cc3cc(F)cc(C(F)(F)F)c3)C2)C1)N1CC2(CC(c3nc(C4CC(F)(F)C4)n[nH]3)C2)C1 [compound 455] | 7.1
20 | O=C(N1CC2(CC(Cn3nccc3C(F)(F)F)C2)C1)N1CC2(CC(c3nc(C4(F)CC4)n[nH]3)C2)C1 [compound 457] | 0.31
21 | Cc1sc(CN2CC3(C2)CN(C(=O)N2CC4(CC(c5nc(C6CC6)n[nH]5)C4)C2)C3)nc1C(F)(F)F [compound 458] | 22.8
22 | O=C(N1CC(C23CC(c4cccc(OC(F)(F)F)c4)(C2)C3)C1)N1CC2(CC(c3nc(C4CC4)n[nH]3)C2)C1 [compound 459] | 0.02
23 | O=C(N1CC2(CC(Cc3ccc(C(F)(F)F)nn3)C2)C1)N1CC2(CC(c3nc(C4(F)CC4)n[nH]3)C2)C1 [compound 460] | 2.64
24 | Cn1ncc(C(F)(F)F)c1CN1CCC2(CC1)CN(C(=O)N1CC3(CC(c4nc(C5CC5)n[nH]4)C3)C1)C2 [compound 461] | 1
25 | CP(C)(=O)c1ccc(CC2CC3(C2)CN(C(=O)N2CC4(CC(c5nc(C6CC6)n[nH]5)C4)C2)C3)c(F)c1 [compound 462] | 3.09

Further lines, results first:

Row | IC50 [nM] | Structure (SMILES)
26 | 0.56 | N#Cc1cc(F)ccc1C12CC(C3CN(C(=O)N4CC5(CC(c6nc(C7CC7)n[nH]6)C5)C4)C3)(C1)C2 [compound 463]
27 | 0.07 | N#Cc1cc(CC2CC3(C2)CN(C(=O)N2CC4(CC(c5nc(C6(F)CC6)n[nH]5)C4)C2)C3)cc(C(F)(F)F)c1 [compound 464]
28 | 114 | O=C(N1CC2(CC(Cc3cnc(C(F)(F)F)cn3)C2)C1)N1CC2(CC(c3nc(C4CC(F)(F)C4)n[nH]3)C2)C1 [compound 465]
29 | 22.9 | CC(C)(C)Cc1nnc(C23CC(C4CN(C(=O)N5CC6(CC(c7nc(C8(O)CC8)n[nH]7)C6)C5)C4)(C2)C3)s1 [compound 466]
30 | 0.33 | O=C(N1CC2(CC(Cc3ccc(C(F)(F)F)cc3F)C2)C1)N1CC2(CC(c3nc(C4CC(F)(F)C4)n[nH]3)C2)C1 [compound 467]
31 | 2.5 | O=C(N1CC2(CC(Cc3ccc(F)cc3C(F)(F)F)C2)C1)N1CC2(CC(c3nc(C4CC(F)(F)C4)n[nH]3)C2)C1 [compound 468]
32 | 1.12 | O=C(N1CC(c2cnc(OCC3(C(F)(F)F)CC3)cn2)C1)N1CC2(CC(c3nc(C4CC4)n[nH]3)C2)C1 [compound 469]
33 | 5.08 | O=C(N1CC(OCc2ccc(S(=O)(=O)C(F)(F)F)cc2F)C1)N1CC2(CC(c3nc(C4(F)CC4)n[nH]3)C2)C1 [compound 470]
34 | 20.3 | O=C(N1CC(c2ccc(C3(C(F)(F)F)CC3)cn2)C1)N1CC2(CC(c3nc(C4(O)CC4)n[nH]3)C2)C1 [compound 471]
35 | 17.7 | Cn1cc(CN2CC3(C2)CN(C(=O)N2CC4(CC(c5nc(C6CC6)n[nH]5)C4)C2)C3)c(C(F)(F)F)n1 [compound 472]
36 | 0.08 | Cn1ncc(CC2CC3(C2)CN(C(=O)N2CC4(CC(c5nc(C6(F)CC6)n[nH]5)C4)C2)C3)c1C(F)(F)F [compound 475]
37 | 0.08 | N#Cc1cc(C(F)(F)F)ccc1CC1CC2(C1)CN(C(=O)N1CC3(CC(c4nnc(C5(O)CC5)[nH]4)C3)C1)C2 [compound 477]
38 | 0.18 | Cn1cc(C(F)(F)F)c(CC2CC3(C2)CN(C(=O)N2CC4(CC(c5nc(C6CC6)n[nH]5)C4)C2)C3)n1 [compound 479]
39 | 12.1 | N#Cc1ccc(=O)n(CC2CC3(C2)CN(C(=O)N2CC4(CC(c5nc(C6CC6)n[nH]5)C4)C2)C3)c1 [compound 480]
40 | 1.06 | CS(=N)(=O)c1cc(C(F)(F)F)ccc1CC1CC2(C1)CN(C(=O)N1CC3(CC(c4nc(C5CC5)n[nH]4)C3)C1)C2 (stereo not shown) [compound 481]
41 | 3.39 | O=C(N1CC2(CC(c3nc(C4(O)CC4)n[nH]3)C2)C1)N1CC2(CCN(Cc3cccc(S(=O)(=O)C(F)(F)F)c3)C2)C1 [compound 482]
42 | 2.13 | CC(C)(C)c1coc(CN2CC3(C2)CN(C(=O)N2CC4(CC(c5nc(C6CC6)n[nH]5)C4)C2)C3)n1 [compound 483]
43 | 89.2 | O=C(N1CC2(CC(c3nc(C4(O)CC4)n[nH]3)C2)C1)N1CC2(CC(S(=O)(=O)c3cccc(OC(F)(F)F)c3)C2)C1 [compound 484]
44 | 64.5 | O=C(N1CC2(CC(c3nc(C4CC4)n[nH]3)C2)C1)N1CC2(CN(Cc3nnc(C(F)(F)F)s3)C2)C1 [compound 485]
45 | 10.6 | N#Cc1ccc(CC2CC3(C2)CN(C(=O)N2CC4(CC(c5nc(C6CC(F)(F)C6)n[nH]5)C4)C2)C3)c(F)c1 [compound 486]
46 | 9.82 | CC(C)(C)c1nnc(CN2CC3(C2)CN(C(=O)N2CC4(CC(c5nc(C6CC6)n[nH]5)C4)C2)C3)s1 [compound 487]
